Results on three compounds are retold here after patent US6479232B1, “Human xenografts for microbicide testing and anatomical modeling” (The Pennsylvania State University, priority 1999, dated 2002).

Details of series [1]: species or system mice. As to conditions: mouse, in vivo. From the text: While it is not intended the present invention be limited to any specific formulation or dimension of silastic tubing, in one embodiment said silastic tubing was fabricated according to the following method. Tubing (0.078 in. inner diameter by 0.125 in. outer diameter; Dow Corning, Midland, Mich.) was filled with 17β-estradiol (1,3,5[10]-Estratriene-3, 17β) (Sigma Chemical Company, St. Louis, Mo.) mixed 1:3 (w/w) with silastic 382 medical grade elastomer (Dow Coming, St. Louis, Mo.). The mixture was allowed to dry and the tubing cut, in one embodiment, to a size (approximately 2×2×1 mm) which yielded a measurable circulating estradiol concentration of about 150-200 pg/ml in mice. It may be noted that this concentration of estradiol approximates the concentration of estrogen in women during the late follicular phase of the menstrual cycle.

Series [2] relates to HPV-11. Kind of series: HPV-11 infection of human vaginal xenografts engrafted in immunocompromised mouse, virus pre-treated with candidate microbicide. As to conditions: HPV-11 treated with 0.05% SDS at 37° C. for 10 minutes, then placed in lumen of grafts engrafted ten days in immunocompromised mouse. The series is classed as in vivo. From the text:
In this example, human vaginal xenografts were infected with HPV by inoculating the lumen of said vaginal xenografts, engrafted into a non-human host, with HPV-11 stock virus suspensions prepared according to the methods presented in Example 1. […] Furthermore, it is not necessary to traumatize the walls of said grafts during inoculation to precipitate infection.
In experimental samples, candidate microbicides are mixed with HPV in vitro prior to administration of said HPV/candidate microbicide mixture to the lumen of a vaginal xenograft engrafted into a non-human host. In an alternative experimental embodiment, candidate microbicides were pre-administered to the vaginal lumen, before delivery of a pathogenic agent, into the same lumen.
Xenografts are harvested at 70-90 days and are screened for signs of virus replication. Said screening protocols include quantification of morphologic transformations, viral DNA and RNA synthesis, and protein synthesis. In addition, cell-free extracts of infected xenografts are tested by bioassay for the presence of infectious virus using standard procedures for infection and transformation of vaginal epithelium. […]
In general terms: A xenograft is tissue or cells of one species grown in another, often human tumour cells in immunodeficient mice.

Series [3] deals with human vaginal xenograft epithelium. Kind of series: Survival and morphology of treated epithelium in the human vaginal xenograft. The series is classed as in vivo. As to conditions: grafts receiving virus treated with 0.05% SDS. The protocol:
In this example, human vaginal xenografts engrafted for ten days in the subcutaneous space of an immunocompromised mouse were infected with 10 u l of HPV-11, or HPV-11 that had been treated with 0.05% SDS at 37° C. for 10 minutes and then placed in the lumen of the grafts. At varying intervals, the infected human xenografts (or portions thereof) were surgically removed and examined.

Series [4] has as its system HIV-1. As to conditions: in vitro; cited from earlier work.
The conditions of series [5]: some people; cited from earlier work.
In series [6] the test system is HSV-2. As to conditions: in vitro; cited from earlier work.
For series [7], the system named is HPVs. The settings on record: cited from earlier work.
Series [8] relates to HIV. The settings on record: cited from earlier work.

`C[C@]12CC[C@@H]3c4ccc(O)cc4CC[C@H]3[C@@H]1CC[C@@H]2O` [17β-estradiol, 17β-estradiol (1,3,5[10]-Estratriene-3, 17β)] showed a circulating estradiol concentration in series [1] of 150 to 200 pg/mL.
For `CCCCCCCCCCCCOS(=O)(=O)[O-].[Na+]` [SDS, Sodium Dodecyl Sulfate], the “prevention of virus infection (papillomatous transformation, virus DNA, virus protein)” value in series [2] is “effectively prevented virus infection”. Also, in series [3], the “killing of treated epithelium in the vaginal xenograft” value is “did not kill the treated epithelium” and the “morphology of tissues receiving treated virus” value is “stratified squamous epithelium with a morphology analogous to normal in situ vagina”.
On to Nonoxynol-9 [N-9], for which the “inactivation of HIV-1” value in series [4] is reported as “inactivates”. The irritation and ulceration result in series [5] is “may cause irritation and ulceration in some people”. In addition, the “inactivation of HSV-2” value in series [6] was “inactivates”. In addition, the “inactivation of / effectiveness against HPVs” value in series [7] is given as “does not inactivate HPVs”. Moreover, the “prevention of transmission of HIV to women” value in series [8] is on record as “has not been proven to prevent transmission”.
